Measurements from a melting point compilation (Tetko et al.; mined from patent text by program, amines drawn as free bases though some values may be those of a salt).

Which melting point does the source give for `COc1cc2c(cc1OC)CN(CCCOc1ccc(NC(=O)c3cccc(C(=O)c4ccccc4)c3)cc1)CC2` here?
Its melting point is over 260 °C.

Which melting point does the source give for `CC(C)(C)c1cc(SCSc2cc(C(C)(C)C)c(O)c(C(C)(C)C)c2)cc(C(C)(C)C)c1O` here?
The melting point was 94 to 95 °C.

Which melting point does the source give for `CC(C)(C(=O)O)C1([N+](=O)[O-])OC2=CC=CC2=CC1c1ccccc1` (stereo unspecified) here?
The melting point was 256 to 258 °C.

Which melting point does the source give for `COC(=O)C=Cc1cc(-n2nc(C)n(C(F)F)c2=O)c(Cl)cc1Cl` here?
The melting point was 148 to 151 °C.

With `COc1ccc(N(N)c2ncnc3cc(Cl)ccc23)cc1` as the compound, how does the melting point read?
The melting point was 124 to 127 °C.

With `Cc1cc2oc(NC(=O)Nc3c(C)cccc3C)c(-c3ccccc3Cl)c2cc1C` as the compound, how does the melting point read?
The melting point was 252 to 254 °C.

Which melting point does the source give for `N[C@@H]1CN2C(=O)N(c3cc(Cl)cc(Cl)c3)C(=O)[C@@]2(Cc2ccc(Br)cc2)C1` here?
The melting point was 64.4 °C.

Which melting point does the source give for `CC(=O)OCC(=O)c1ccc(F)cc1F` here?
The melting point was 54 to 56 °C.

Which melting point does the source give for `C#CCCCCNC(=O)c1cnc(OCC(O)CNC(C)(C)C)s1` (stereo unspecified) here?
Its melting point is 140 to 148 °C.

With `COc1cc(OC)nc(OC(C(=O)O)C(C)(C)C#N)n1` (stereo unspecified) as the compound, how does the melting point read?
The melting point was 142 to 150 °C.

For `Cc1cc(O)c(N)c([N+](=O)[O-])c1C`, which melting point is on record?
The melting point was 176 to 178 °C.

With `O=C(O)c1cc2ccccc2nc1C(=O)O` as the compound, how does the melting point read?
Its melting point is 271 to 277 °C.

With `O=P(O)(O)C(O)(Cc1ccc(Cl)cc1)P(=O)(O)O` as the compound, how does the melting point read?
The melting point was 219 °C.

With `CN1CCC(N2CCN(c3cccc(-c4cn[nH]c4N)c3)CC2)CC1` as the compound, how does the melting point read?
Its melting point is 213 to 220 °C.

Which melting point does the source give for `CC(F)(C(N)=O)c1ccc(OS(=O)(=O)C(F)(F)F)cc1` (stereo unspecified) here?
The melting point was 75 to 78 °C.

Which melting point does the source give for `Cn1c(C=O)c(-c2ccccc2)c2ccccc2c1=O` here?
The melting point was 181 to 182 °C.

With `O=C(C=Cc1ccc(Cl)c(Cl)c1)C1CC1` as the compound, how does the melting point read?
Its melting point is 74 to 76 °C.

For `COC(=O)Cc1cn(-c2ccccc2)nc1OCc1ccc(OCc2nc(-c3ccccc3)oc2C)nc1`, which melting point is on record?
The melting point was 96 to 97 °C.

For `CNC(=O)c1cn2c(C)c(C)nc2c(O)c1CC[C@@H](O)c1ccccc1`, which melting point is on record?
The melting point was 250 to 252 °C.

With `C=CC1(NC(=O)OC)CC(C)(C)CC(C)(C)C1` as the compound, how does the melting point read?
The melting point was 61 to 63 °C.

With `COC(Cc1cc(C)c(OCCc2nc(C(C)(C)C)oc2C)c(C)c1)C(=O)O` (stereo unspecified) as the compound, how does the melting point read?
Its melting point is 78 to 80 °C.

With `CC(=O)N1[C@@H](c2ccc(F)cc2)SC(C)(C)[C@@H]1C(=O)O` as the compound, how does the melting point read?
Its melting point is 144 to 146 °C.

With `O=C1c2ccccc2C(=O)N1CCC=Cc1csc(-c2ccccn2)n1` as the compound, how does the melting point read?
Its melting point is 139 to 141 °C.

With `Cc1oc(-c2ccccc2)nc1COc1ccc(CON=C(CCC(=O)O)c2ccncc2)cc1` as the compound, how does the melting point read?
Its melting point is 161 to 162 °C.

Which melting point does the source give for `Cn1nccc1CCS(=O)Cc1ccc(OCc2coc(/C=C/c3ccc(OC(F)(F)F)cc3)n2)cc1` (stereo unspecified) here?
Its melting point is 138 to 139 °C.

For `Cc1cc(SC(=O)N(C)C)c(C(C)(C)C)cc1C=O`, which melting point is on record?
The melting point was 107 to 108 °C.

For `COC(=O)COc1cc2ccccc2c2c1c(C(=O)C(N)=O)c(C)n2Cc1cccc(-c2ccc(F)cc2)c1`, which melting point is on record?
Its melting point is 157 to 159 °C.

For `COc1cc2c(cc1OC)-c1c(C(=O)c3ccccc3)c(-c3cc(C)c(O)c(C)c3)c(C)n1CC2`, which melting point is on record?
The melting point was 194 to 196 °C.

With `CC(=O)OC1CSC(Oc2ccc(Cl)nc2)C(OC(C)=O)C1OC(C)=O` (stereo unspecified) as the compound, how does the melting point read?
Its melting point is 141 °C.

For `CNC(NCc1ccc(Cl)nc1)=C(C(=S)NS(C)(=O)=O)[N+](=O)[O-]`, which melting point is on record?
The melting point was 129 to 131 °C.

For `CCCC1(C(=O)O)CCCCC1`, which melting point is on record?
Its melting point is 58 to 59 °C.

Which melting point does the source give for `CC(C)c1ccc(-c2ccc(-c3cccc(C(=O)O)c3)o2)cc1` here?
The melting point was 172 to 176 °C.

Which melting point does the source give for `COc1ccc(N2Cc3nc(CO)nn3-c3cccnc32)cc1` here?
The melting point was 190 to 194 °C.

For `CCCNC(=O)C(=O)CCC(=O)O`, which melting point is on record?
Its melting point is 79 to 81 °C.

Which melting point does the source give for `Cc1ccc(-c2ccccc2C(=O)Nc2ccc(C(=O)N3CCC(=O)N(CC(=O)N4CCN(C)CC4)c4ccccc43)cc2)cc1` here?
The melting point was 161 to 163 °C.

For `Cc1ccc(C)c(-c2cccc(C=CC(=O)O)c2)c1`, which melting point is on record?
Its melting point is 156 to 157 °C.

For `CCOC(=O)Nc1ccc2c(c1)C(c1ccccc1Cl)SCCC(=O)N2` (stereo unspecified), which melting point is on record?
Its melting point is 229 to 231 °C.

For `COc1ccc(F)c(C)c1NC(=O)OC(C)(C)C`, which melting point is on record?
Its melting point is 81 to 82 °C.

With `O=C1N(Cc2ccc(-c3ccno3)cc2)c2ccccc2C12COc1cc3c(cc12)OCCO3` (stereo unspecified) as the compound, how does the melting point read?
Its melting point is 209 to 212 °C.

Which melting point does the source give for `Cc1nccn1C(c1ccccc1)(c1ccccc1)c1ccccc1Cl` here?
Its melting point is 177 °C.

Which melting point does the source give for `Clc1ccc(C(CBr)OC2CCCC(COc3ccc(Cl)cc3Cl)O2)cc1` (stereo unspecified) here?
Its melting point is 86 to 87 °C.

Which melting point does the source give for `Clc1nc2ccccc2cc1CBr` here?
Its melting point is 125 °C.

Which melting point does the source give for `O=[N+]([O-])c1cccc(-c2nnc(NCc3cccc4ccccc34)s2)c1` here?
Its melting point is 150 to 151 °C.

With `COc1ccc([N+](=O)[O-])c(Nc2cccc(O)c2)n1` as the compound, how does the melting point read?
Its melting point is 156 to 158 °C.

With `Cc1c(NC(=O)c2ccc(C(C)(C)C)cc2)cccc1-c1cn(C)c(=O)c(Nc2ccc(C(C(=O)O)N(C)C(C)C)cc2)n1` (stereo unspecified) as the compound, how does the melting point read?
The melting point was 197 to 198 °C.

Which melting point does the source give for `O=c1cc(-c2ccc(O)c(Br)c2)oc2ncccc12` here?
Its melting point is 267 to 272 °C.

With `COc1cc(C)cc(S(=O)(=O)c2cccc(F)c2C#N)c1` as the compound, how does the melting point read?
Its melting point is 160 to 162 °C.

For `COc1cccc(C(C#N)=NOS(C)(=O)=O)c1`, which melting point is on record?
The melting point was 105 to 107 °C.

With `CN(C)C(=O)c1ccc(C=O)cc1` as the compound, how does the melting point read?
Its melting point is 198 to 202 °C.

Which melting point does the source give for `C=CCNc1nc(=O)c2cccnc2n1Cc1ccc(F)cc1` here?
The melting point was 190 to 194 °C.

For `CCCCCCCCCCCCCCCCOc1ccc(OCC(=O)O)cc1`, which melting point is on record?
Its melting point is 125 to 127 °C.

With `COc1ccc(CCNC(=O)/C=C/c2cccs2)cc1S(N)(=O)=O` as the compound, how does the melting point read?
Its melting point is 218 to 221 °C.

For `CS(=O)c1ccc(-c2cc(C(F)F)nn2-c2ccc3c(c2)OCO3)cc1` (stereo unspecified), which melting point is on record?
The melting point was 104 to 105 °C.

Which melting point does the source give for `COc1cc2c(cc1OC)C1=NCC(CBr)N1C(SC)=N2` (stereo unspecified) here?
The melting point was 225 °C.

Which melting point does the source give for `Cn1ncnc1COc1nc2c(cnn2-c2ccccc2)cc1C(C)(C)C` here?
The melting point was 143 to 145 °C.

Which melting point does the source give for `CN(C)Cc1nc2cccnc2[nH]1` here?
The melting point was 123 to 125 °C.

With `CC1CC2C3CC(Cl)C4=CC(=O)C=CC4(C)C3(Cl)C(O)CC2(C)C1C(=O)CO` (stereo unspecified) as the compound, how does the melting point read?
The melting point was 230 °C.

Which melting point does the source give for `Cc1cc2c(c3c1NC(=O)CC3)O[C@@H](CN)[C@@H]2CO` (racemic) here?
Its melting point is over 300 °C.

For `OC(Cn1cncn1)(CC(Cl)(Cl)Cl)c1cc(Cl)cc(Cl)c1` (stereo unspecified), which melting point is on record?
The melting point was 186 °C.

Which melting point does the source give for `CC(=NOC(C)(C)C)c1cnc(NC(=O)[C@H](CC2CCCC2)c2ccc(S(C)(=O)=O)cc2)cn1` here?
Its melting point is 81 to 83 °C.

With `Cc1oc(-c2ccccc2)nc1CCCCCC(CO)CO` as the compound, how does the melting point read?
Its melting point is 71 to 74 °C.

For `S=C1Nc2cc(Br)ccc2-n2ccc3cccc1c32`, which melting point is on record?
Its melting point is 214 to 215 °C.

For `Cc1ccc(CN(O)C(N)=O)s1`, which melting point is on record?
The melting point was 134 °C.

With `N#Cc1ccc(-c2cn(-c3ccc(C#N)cc3)c(CC3(O)C=CC=CN3)n2)cc1` (stereo unspecified) as the compound, how does the melting point read?
The melting point was 167 to 175 °C.

Which melting point does the source give for `COc1ccc2c(C(C)C(=O)OCCNC(=O)c3cccnc3)cccc2c1` (single isomer, unassigned; (+)) here?
The melting point was 79 to 82 °C.

Which melting point does the source give for `O=C(CCO)Cc1cccc(OCc2ccc3ccccc3n2)c1` here?
The melting point was 116 to 119 °C.

Which melting point does the source give for `CC(C)C[C@H](NC(=O)c1cnccn1)C(=O)O` here?
The melting point was 36 to 38 °C.

With `Cc1scc2c1N(C(=O)CN1CCCCC1CN(C)C)c1ccccc1NC2=O` (stereo unspecified) as the compound, how does the melting point read?
Its melting point is 172 to 173 °C.

For `Clc1ccc(COc2ccc(-c3nc(COc4ccc(CCCn5ccnc5)cc4)co3)cc2)cc1`, which melting point is on record?
Its melting point is 151 to 152 °C.

For `O=[N+]([O-])c1cc(C(O)CCN2CCC(c3ccccc3)CC2)ccc1C1CCCCC1` (stereo unspecified), which melting point is on record?
Its melting point is 148 to 150 °C.

Which melting point does the source give for `CC(C)(C)OC(=O)COc1ccc(C(=O)O)cc1OCC(=O)OC(C)(C)C` here?
Its melting point is 118 to 120 °C.
